# Measurements reported in US8343539B2, “Compounds that bind α5β1 integrin and methods of use” (Regents of the University of Minnesota, priority 2006, dated 2013).
# Entries after “also recorded” stand apart in the source; their conditions may differ. Primed or numbered codes have the meaning given here. Where no end group is shown, it is not given here. [ ]: non-standard residue; d: D form. (C16)2‑Glu‑C2″ = N-terminal tail: two C16 chains, glutamic acid linker, -(CH2)2- spacer; (C16)2‑Glu‑C2 = lipid tail; Abu = CC[C@H](N)C(=O)O
# Legend:
# HUVECs [1] = assay: Extracellular fibronectin production by HUVECs (Example 1); format: cell-based, human; conditions: for Fibronectin production by adhered HUVECs: 12 and 24 hours; for Fibronectin secretion by adhered HUVECs: after 48 hours
# Protocol: (§1) Cell spreading and fibronectin production experiments: Surface transferring, cell seeding, and incubation were done in the same manner as in the adhesion experiment, with a cell density of 497 cells/mm^2, and incubation times of 1, 12, 24, 48, and 72 hour. At the end of each incubation, the surfaces were removed, washed with […] of PBS, and fixed in 1 ml of 4% paraformaldehyde (Sigma) in PBS for 15 minutes at 37° C., 5% CO2. After washing with PBS, surfaces were first labeled for secreted fibronectin: surfaces were subjected to a blocking solution (0.1% BSA in PBS) for 30 minutes, incubated for 1 hour with a primary antibody specific for secreted fibronectin (mouse anti-human fibronectin (P1H11) monoclonal antibody (Chemicon Int.) at a 1:500 dilution in blocking solution, and then for 45 minutes with a secondary antibody (IgG fluorescein (FITC) conjugated antibody; Chemicon Int.) at a 1:200 dilution in PBS. As a final step, cell membranes and nuclei were stained using the Image-iT™ LIVE Plasma Membrane and Nuclear Labeling Kit following the manufacturer's protocol for labeling fixed cells (Molecular Probes). After final washing, surfaces were mounted onto glass slides and stored at 4° C. protected from light. An inverted fluorescent microscope (Nikon Eclipse TE200 with Pixcell II LCM) was used for imaging. Fibronectin production was assessed visually, by comparing 10-20 fluorescence images from two samples for each substrate (two independent experiments performed at different days). Cell spreading was quantified from two samples per substrate (two independent experiments performed at different days) by measuring cell area with the NIH imaging software.
# HUVECs [2] = assay: HUVEC spreading on substrates (cell area); format: cell-based, human; conditions: for HUVEC spreading (cell area): 1-24 hours; for HUVEC spreading, rank among surfaces: all times examined, 1-72 hours
# Protocol: as §1
# integrin αvβ3 = target: T1, integrin αvβ3 (Homo sapiens, UniProt P05106+P06756); assay: Adhesion blocking with anti-integrin αvβ3 antibody (LM609); format: cell-based; conditions: anti-αvβ3 antibody 20 μg/ml, 1 hour, HUVECs 249 cells/mm^2
# T1 construct: HUVECs were prepared and counted as described in the cell adhesion protocol; endogenous in cells; host or cells: HUVEC (human umbilical vein endothelial cells)
# T1 sequence (P06756 31-889 limits assumed): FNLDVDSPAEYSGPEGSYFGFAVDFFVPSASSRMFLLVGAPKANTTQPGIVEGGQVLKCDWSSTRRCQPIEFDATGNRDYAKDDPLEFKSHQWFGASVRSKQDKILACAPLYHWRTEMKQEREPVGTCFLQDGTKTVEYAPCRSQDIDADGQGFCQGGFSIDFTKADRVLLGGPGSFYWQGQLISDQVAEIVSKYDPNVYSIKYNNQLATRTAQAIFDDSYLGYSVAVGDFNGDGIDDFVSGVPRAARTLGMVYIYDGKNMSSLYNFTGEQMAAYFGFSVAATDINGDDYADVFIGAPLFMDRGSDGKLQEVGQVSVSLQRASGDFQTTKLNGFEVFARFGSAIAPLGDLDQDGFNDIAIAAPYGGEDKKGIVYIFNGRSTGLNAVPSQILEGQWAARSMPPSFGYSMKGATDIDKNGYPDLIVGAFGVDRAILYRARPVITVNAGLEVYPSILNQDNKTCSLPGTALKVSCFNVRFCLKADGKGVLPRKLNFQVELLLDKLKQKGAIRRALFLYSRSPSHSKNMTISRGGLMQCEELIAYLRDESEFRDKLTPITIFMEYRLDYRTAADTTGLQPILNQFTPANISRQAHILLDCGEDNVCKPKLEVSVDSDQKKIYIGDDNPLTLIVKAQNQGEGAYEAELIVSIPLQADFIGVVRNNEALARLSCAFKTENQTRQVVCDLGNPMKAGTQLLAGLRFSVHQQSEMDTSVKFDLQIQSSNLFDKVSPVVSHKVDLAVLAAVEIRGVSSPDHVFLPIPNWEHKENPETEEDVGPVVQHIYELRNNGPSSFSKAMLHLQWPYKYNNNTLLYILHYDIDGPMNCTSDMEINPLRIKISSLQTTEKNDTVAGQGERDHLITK
# T1 sequence (P06756 891-1048 partner limits assumed): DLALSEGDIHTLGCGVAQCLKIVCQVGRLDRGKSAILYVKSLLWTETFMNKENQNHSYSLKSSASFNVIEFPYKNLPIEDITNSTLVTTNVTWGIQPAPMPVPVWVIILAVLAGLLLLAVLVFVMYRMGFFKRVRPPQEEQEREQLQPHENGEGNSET
# T1 sequence (P05106 27-788): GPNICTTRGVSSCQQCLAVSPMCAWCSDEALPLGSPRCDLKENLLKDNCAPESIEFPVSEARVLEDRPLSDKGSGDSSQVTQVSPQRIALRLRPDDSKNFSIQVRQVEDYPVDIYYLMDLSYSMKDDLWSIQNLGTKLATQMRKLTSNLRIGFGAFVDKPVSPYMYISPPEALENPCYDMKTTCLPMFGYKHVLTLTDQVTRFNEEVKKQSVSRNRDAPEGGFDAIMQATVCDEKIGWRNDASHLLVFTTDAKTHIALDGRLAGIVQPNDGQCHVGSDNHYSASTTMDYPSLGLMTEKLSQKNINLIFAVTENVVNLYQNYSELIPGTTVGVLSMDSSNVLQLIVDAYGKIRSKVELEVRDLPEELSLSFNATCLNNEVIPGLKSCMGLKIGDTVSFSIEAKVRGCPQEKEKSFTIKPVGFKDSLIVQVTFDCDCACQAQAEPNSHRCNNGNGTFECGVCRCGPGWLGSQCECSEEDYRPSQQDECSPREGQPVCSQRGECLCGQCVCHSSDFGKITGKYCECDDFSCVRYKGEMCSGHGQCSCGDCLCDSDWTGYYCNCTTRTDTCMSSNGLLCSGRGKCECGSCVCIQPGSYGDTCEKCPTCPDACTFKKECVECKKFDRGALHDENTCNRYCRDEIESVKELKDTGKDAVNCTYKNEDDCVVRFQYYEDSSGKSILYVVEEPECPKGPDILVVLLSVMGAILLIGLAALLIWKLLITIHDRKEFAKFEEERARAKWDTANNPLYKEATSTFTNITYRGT
# Protocol: Adhesion blocking experiments: Blocking experiments were done using mouse anti-human integrin as (P1D6), β1 (P5D2), α5β1 (JBS5), and αvβ3 (LM609) monoclonal antibodies (Chemicon Int.). All surfaces were transferred to 24- or 12-well plates and pre-incubated in 0.1% BSA media as described above. HUVECs were prepared and counted as described in the cell adhesion protocol. Cells were blocked by mixing the cell suspension with the appropriate antibody in 0.1% BSA media, and incubating for 30 minutes at 37° C., 5% CO2 with constant agitation. Blocked cells were then released onto LB and FN surfaces and allowed to adhere for 1 hour at 37° C., 5% CO2. […] Following incubation, surfaces were washed, and adhered cells were quantified as described in the cell adhesion protocol.
# HUVECs [3] = assay: HUVEC adhesion on LB membranes of peptide-amphiphiles (Example 1); format: cell-based, human; conditions: 1-72 hours, no serum
# Excerpt: Surface preparation: Peptide-amphiphiles, listed in Table 1, were synthesized as described in the literature (Berndt et al., J. Am. Chem. Soc., 1995; 117:9515-9522). Langmuir-Blodgett (LB) membranes constructed from peptide-amphiphiles were deposited onto 15 mm mica disks as described elsewhere (Kokkoli et al., Langmuir, 2004; 20:2397-2404). Shortly before cell assays, the LB films were transferred into 24-well plates containing 1× phosphate buffered saline (PBS) solution (Mediatech), without exposing surfaces to air, as they rearrange to form multilayers (Hansma et al., Method. Cell Biol., 2002; 69:163-193). After equilibrating for 5-10 minutes, PBS was exchanged with 1 ml of MCDB-131 basal media (Sigma) supplemented with 0.1% bovine serum albumin (BSA) (Sigma) and antibiotics (Sigma) (2.5 μg/ml gentamicin, 2.5 μg/ml amphotericin B, 50 U/ml penicillin, and 50 μg/ml streptomycin), referred to as 0.1% BSA media. Surfaces were equilibrated at 37° C., 5% CO2 for 30-60 minutes before adding the cells. Human fibronectin-coated round coverslips (FN) 22 mm in diameter (BD Biosciences) were put into 12-well plates and 2 ml of 0.1% BSA media was added to each well. Surfaces were equilibrated for 30-60 minutes at 37° C., 5% CO2.
# Cell culture: Human umbilical vein endothelial cells, HUVECs, (Cambrex Corporation) were cultured in MCDB-131 containing 20% fetal bovine serum (FBS) (Atlas Biologicals) at 37° C., 5% CO2. Other nutrients and antibiotics supplementing the media were added based on an optimal HUVEC proliferation study (Terramani et al., In Vitro Cell Dev. Biol.—Animal, 2000; 36:125-132). Media was changed in the culture flasks every other day. Cells used for adhesion and imaging studies were in passages 3-4.
# Cell adhesion experiments: After cells became 90% confluent they were washed with PBS, trypsinized with 0.25% Trypsin-EDTA (Cambrex Corporation), neutralized with MCDB-131 with 2% FBS, and spun at 1000 rpm for 10 minutes. The supernatant was removed and the cell pellet was resuspended in 0.1% BSA media. Cells were counted with a hemocytometer and seeded onto LB and FN surfaces at a density of 497 cells/mm^2. Surfaces were incubated with cells in 0.1% BSA media at 37° C., 5% CO2, for 1, 4, 12, 24, 48, and 72 hours. Cell adhesion was quantified using the CyQuant Cell Proliferation Assay Kit, with a dye that binds to cellular nucleic acids, following the manufacturer's protocol (Molecular Probes). A calibration standard curve was created for each experiment. The plates were read on a SpectraMAX GeminiXS (Molecular Devices).
# HUVECs [4] = assay: Actin cytoskeleton and focal adhesion staining; format: cell-based, human; conditions: for Actin fibers and focal adhesion points: 12 hours
# Protocol: Actin cytoskeleton and focal adhesion staining: Surface transferring, cell seeding, incubation, and fixing were done as described above. Staining for the actin cytoskeleton, focal adhesions, and nucleus of attached cells was done using the Actin Cytoskeleton and Focal Adhesion Staining Kit following the manufacturer's protocol (Chemicon Int.) and using 1:350 dilution for anti-vinculin antibody, 1:200 for the secondary antibody, approximately 1:1000 dilution (equivalent to 1 unit/surface) for TRITC-conjugated phalloidin and 1:1000 for DAPI. After washing, surfaces were mounted onto glass slides and stored at 4° C. protected from light. A confocal microscope (BIORAD Multiphoton Confocal 1024) was used for imaging.
# HUVECs [5] = assay: HUVEC adhesion timed experiments on LB membranes (Example 2); format: cell-based, human; conditions: for Maintenance / decay of HUVEC adhesion over time: up to 12 hours
# Protocol: Surface preparation: Each peptide-amphiphile was used to form homogenous LB membranes as in previous work (Kokkoli Langmuir 2004; 20:2397-2404), except that both the water and 15 mm mica disks used had been autoclaved for sterility. All depositions were done at a surface pressure between 41 and 47 mN/m, well below the collapse pressure and in the liquid-condensed or solid phase. Approximately 90 minutes before cells were seeded on the LB films to begin cell adhesion experiments, mica surfaces were transferred into 1× phosphate buffered saline (PBS), with particular care taken to ensure films were not exposed to air. After 5-10 minutes of equilibration, surfaces were transferred into 24-well plates containing a supplemented MCDB-131 basal media (Sigma), as described in Example 1. Following surface transfer, 24-well plates were moved to a 37° C., 5% CO2 incubator for 45-60 minutes. As a control, 22 mm diameter human fibronectin-coated coverslips (BD Biosciences), referred to as FN, were put into 12-well plates, covered with 2 ml of the supplemented media, and also incubated for 45-60 minutes.
# Cell culture: Human umbilical vein endothelial cells, HUVECs (Cambrex Corporation), were cultured as described previously (see Example 1). Only cells from passage 3 were used in all studies.
# Cell adhesion experiments: Flasks of HUVECs with at least 90% confluency were washed with 1×PBS, trypsinized with 0.25% Trypsin-EDTA (Fisher Scientific), and neutralized with 2% fetal bovine serum in MCDB-131 basal media. The suspended cells from all flasks were placed in one 50 ml centrifuge tube and centrifuged at 1000 rpm for 5 minutes. The media was removed and the cell pellet was resuspended in the supplemented media described above. A hemocytometer was used to count the cells and then 497 cells/mm^2 were seeded onto both LB and FN surfaces. Surfaces were incubated with cells at 37° C., 5% CO2 for 1, 4, or 12 hours. Cell adhesion following these times was determined using the CyQuant cell proliferation assay kit (Molecular Probes), which measures the fluorescence of a cellular nucleic acid-binding dye using the SpectraMAX GeminiXS plate reader (Molecular Devices). Standard calibration curves were created within each experiment for both 12- and 24-well plates.
# α5β1 integrin = α5β1 integrin (Homo sapiens, UniProt P05556+P08648); conditions: inferred from literature on polyglycine linkers (Petrie 2006); cited from earlier work
# HUVECs [6] = assay: Fibronectin production staining (Example 2); format: cell-based, human; conditions: 12 hours
# Protocol: Fibronectin production staining: Surface preparation, transfer, and cellular work were all done as described in the previous methods. Only surfaces incubated with cells for 12 hours were stained. The staining protocol, involving a primary antibody for secreted fibronectin (Chemicon), a FITC-conjugated secondary antibody (Chemicon), and the Image-iT LIVE plasma membrane and nuclear labeling kit (Molecular Probes), was done as previously described in Example 1. A single photon confocal microscope (Olympus FluoView FV1000) was used for imaging. Two slides per substrate were prepared each during 2 separate experiments and each slide was imaged 2-4 times. The final images chosen were all taken from one experiment for consistency, but were representative of the images obtained from both experiments.
# [7] = target: T2, mouse α5β1 integrin on CT26.WT cells (mouse, UniProt P11688 45-1053; P09055 21-798); assay: flow cytometry, PR_b stealth liposomes on CT26.WT cells, 4 °C, 3 hrs
# T2 construct: whole, on cells; Endogenous on mouse colon carcinoma cells; also called integrin α5β1 expressing CT26.WT cells
# T2 sequence (P11688 45-1053, chain 1 of 2): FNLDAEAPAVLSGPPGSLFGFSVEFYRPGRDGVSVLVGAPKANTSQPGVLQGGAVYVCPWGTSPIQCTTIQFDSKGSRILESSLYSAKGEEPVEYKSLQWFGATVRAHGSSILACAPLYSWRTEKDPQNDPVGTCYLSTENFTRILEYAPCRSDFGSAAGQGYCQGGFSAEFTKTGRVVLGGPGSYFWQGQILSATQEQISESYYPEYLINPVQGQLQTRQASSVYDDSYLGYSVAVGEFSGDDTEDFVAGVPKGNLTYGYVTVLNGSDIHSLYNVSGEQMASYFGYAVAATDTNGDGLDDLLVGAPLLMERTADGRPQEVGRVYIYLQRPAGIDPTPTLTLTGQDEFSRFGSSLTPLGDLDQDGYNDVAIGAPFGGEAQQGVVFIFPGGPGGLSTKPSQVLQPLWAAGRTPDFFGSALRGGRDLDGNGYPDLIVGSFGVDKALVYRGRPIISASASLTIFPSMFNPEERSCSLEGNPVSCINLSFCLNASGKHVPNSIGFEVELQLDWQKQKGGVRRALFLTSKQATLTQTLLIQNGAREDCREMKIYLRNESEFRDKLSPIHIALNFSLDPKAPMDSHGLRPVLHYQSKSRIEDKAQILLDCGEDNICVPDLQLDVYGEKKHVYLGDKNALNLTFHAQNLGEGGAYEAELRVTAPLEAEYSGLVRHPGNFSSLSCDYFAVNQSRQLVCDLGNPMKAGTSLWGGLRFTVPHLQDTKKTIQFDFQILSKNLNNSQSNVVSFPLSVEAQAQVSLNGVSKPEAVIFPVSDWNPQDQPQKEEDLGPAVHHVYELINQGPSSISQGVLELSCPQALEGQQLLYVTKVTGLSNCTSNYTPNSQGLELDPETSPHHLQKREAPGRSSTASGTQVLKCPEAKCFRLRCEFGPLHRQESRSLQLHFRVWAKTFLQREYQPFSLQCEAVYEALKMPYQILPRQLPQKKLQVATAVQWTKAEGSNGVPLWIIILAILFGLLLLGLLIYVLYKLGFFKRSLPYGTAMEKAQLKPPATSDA
# T2 sequence (P09055 21-798, chain 2 of 2): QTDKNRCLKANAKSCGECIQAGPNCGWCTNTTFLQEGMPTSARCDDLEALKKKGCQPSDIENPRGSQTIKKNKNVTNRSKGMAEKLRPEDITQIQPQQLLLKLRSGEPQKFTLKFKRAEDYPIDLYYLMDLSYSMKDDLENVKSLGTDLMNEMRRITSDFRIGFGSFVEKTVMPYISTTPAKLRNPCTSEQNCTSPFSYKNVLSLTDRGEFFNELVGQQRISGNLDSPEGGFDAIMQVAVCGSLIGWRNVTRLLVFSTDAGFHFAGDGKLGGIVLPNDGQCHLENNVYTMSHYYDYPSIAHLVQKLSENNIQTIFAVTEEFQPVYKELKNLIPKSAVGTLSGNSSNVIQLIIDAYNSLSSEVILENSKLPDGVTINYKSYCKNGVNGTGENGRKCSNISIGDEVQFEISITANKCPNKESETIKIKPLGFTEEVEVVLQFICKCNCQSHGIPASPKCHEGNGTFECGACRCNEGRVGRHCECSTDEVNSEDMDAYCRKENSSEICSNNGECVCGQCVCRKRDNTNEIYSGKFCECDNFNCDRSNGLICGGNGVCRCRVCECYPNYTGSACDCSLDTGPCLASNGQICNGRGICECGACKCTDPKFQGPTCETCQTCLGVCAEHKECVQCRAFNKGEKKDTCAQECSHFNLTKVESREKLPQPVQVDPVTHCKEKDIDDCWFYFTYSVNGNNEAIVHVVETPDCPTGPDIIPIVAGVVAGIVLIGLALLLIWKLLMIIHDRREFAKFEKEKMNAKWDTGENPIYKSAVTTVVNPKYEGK
# Protocol: Tubes were incubated at 4° C. or 37° C. over a rotary shaker for the specified duration of time. Cells were then pelleted and washed twice in FB. Flow cytometric analysis was carried out immediately. For peptide blocking experiments, the protocol specified above was used except cells were incubated with 200 µg/ml of free peptide-amphiphile in FB for one hour prior to incubating the cells with the liposomes. […] All experiments were repeated twice but results are presented from a single experiment.
# [8] = target: T2, mouse α5β1 integrin on CT26.WT cells; assay: flow cytometry, liposomes on CT26.WT cells, 4 °C, 3 hrs
molecule,measurement,setting,value
(C16)2-Glu-C2-GRGDSP,Fibronectin production by adhered HUVECs,HUVECs [1],significantly less compared to FN and PR_b
same,Fibronectin secretion by adhered HUVECs,HUVECs [1],minimal fibronectin secretion
same,HUVEC spreading (cell area),HUVECs [2],"higher compared to GRGESP, but much smaller than FN"
same,reduction in cell adhesion compared to adhesion of non-blocked cells,integrin αvβ3,75.99±1.51%
same,Ability of substrate to sustain HUVEC adhesion over time,HUVECs [3],failed to sustain HUVEC adhesion after 48 hours; also recorded: failed to sustain cell adhesion after 48 hours
same,Focal adhesion contacts (vinculin),HUVECs [4],did not form strong focal adhesion contacts
same,Actin fibers and focal adhesion points,HUVECs [4],some actin fiber formation
same,Actin organization,HUVECs [4]; 24 hours,actin organization became less pronounced
(C16)2-Glu-C2-GRGESP ({(C16)2‑Glu‑C2}-GRGESP) [negative control peptide-amphiphile],Fibronectin production by adhered HUVECs,HUVECs [1],significantly less compared to FN and PR_b
same,Fibronectin secretion by adhered HUVECs,HUVECs [1],minimal fibronectin secretion
same,HUVEC spreading (cell area),HUVECs [2],smallest
same,Ability of substrate to sustain HUVEC adhesion over time,HUVECs [3],failed to sustain cell adhesion after 48 hours
same,Actin fibers and focal adhesion points,HUVECs [4],no distinct actin fibers and very few focal adhesion points
(C16)2-Glu-C2-KSSPHSRNGGGGGGGGGGRGDSP ({(C16)2‑Glu‑C2}-KSSPHSRNGGGGGGGGGGRGDSP) [Pr_c],HUVEC adhesion level (description),"HUVECs [5]; 1, 4 and 12 hours",high adhesion at 1 hour
same,Maintenance / decay of HUVEC adhesion over time,HUVECs [5],not maintained at longer time periods
same,Specificity for the α5β1 integrin,α5β1 integrin,not specific to the α5β1 integrin
(C16)2-Glu-C2-KSSPHSRNSSSSSSSSSSRGDSP ({(C16)2‑Glu‑C2}-KSSPHSRNSSSSSSSSSSRGDSP) [Pr_d],HUVEC adhesion level (description),"HUVECs [5]; 1, 4 and 12 hours",good adhesion out to 4 hours
same,Maintenance / decay of HUVEC adhesion over time,HUVECs [5],extreme drop-off at 12 hours
(C16)2-Glu-C2-PHSRNSGSGSGSGRGDSP ({(C16)2‑Glu‑C2}-PHSRNSGSGSGSGRGDSP) [PR_a],HUVEC adhesion compared with FN,HUVECs [5]; 1 hour,no statistical difference
same,HUVEC adhesion compared with FN,HUVECs [5]; 4 hours,no difference in adhesion
same,HUVEC adhesion compared with FN,HUVECs [5]; 12 hours,statistically higher than FN
same,HUVEC spreading (cell area),HUVECs [2],mostly spread
same,"HUVEC spreading, rank among surfaces",HUVECs [2],third
same,Ability of substrate to sustain HUVEC adhesion over time,HUVECs [3],effectively adhered
(C16)2-Glu-C2-PHSRNSGSGSGSGSGRGDSP ({(C16)2‑Glu‑C2}-PHSRNSGSGSGSGSGRGDSP) [Pr_e],"HUVEC adhesion compared with FN, overall","HUVECs [5]; 1, 4 and 12 hours",superior cell adhesion performance; also recorded: outperformed
same,"HUVEC adhesion compared with Pr_a, overall","HUVECs [5]; 1, 4 and 12 hours",superior cell adhesion performance; also recorded: outperformed
same,HUVEC adhesion compared with FN,HUVECs [5]; 1 hour,higher HUVEC adhesion
same,HUVEC adhesion compared with Pr_a,HUVECs [5]; 1 hour,higher HUVEC adhesion
same,HUVEC adhesion compared with FN,HUVECs [5]; 4 hours,higher adhesion than FN
same,HUVEC adhesion compared with Pr_a,HUVECs [5]; 4 hours,no statistical difference
same,HUVEC adhesion compared with FN,HUVECs [5]; 12 hours,statistically higher than FN
same,HUVEC adhesion compared with Pr_a,HUVECs [5]; 12 hours,not statistically different
"FN: Human fibronectin-coated round coverslips (BD Biosciences), positive control",Fibronectin secretion by adhered HUVECs,HUVECs [1],fully covered with secreted fibronectin
same,HUVEC spreading (cell area),HUVECs [2],mostly spread
same,"HUVEC spreading, rank among surfaces",HUVECs [2],second
same,Fibronectin (ECM) production by adhered HUVECs,HUVECs [6],allow both cell adhesion and ECM production; also recorded: allowed attached cells to produce fibronectin
same,Actin stress fibers and focal contacts,HUVECs [4]; 1-72 hours,displayed actin stress fibers and focal contacts
{(C16)2‑Glu‑C2″}-KSSPHSRNSGSGSGSGSGRGDSP [PR_b peptide-amphiphile (C16)2-Glu-C2-KSSPHSRNSGSGSGSGSGRGDSP],reduction of binding against stealth liposomes with about 2.5 mol % PR_b,[7],10 fold
same,increase of binding against 2.5 mol % GRGDSP low PEG2000 liposomes,[8],~100 fold
{(C16)2‑Glu‑C2}-K[Abu]GRGDSP[Abu]K (also called GRGDSP-targeted liposomes; GRGDSP-functionalized liposomes) [GRGDSP peptide-amphiphile (C16)2-Glu-C2-KAbuGRGDSPAbuK],binding result,[8],binds
